The results in this text go back to patent EP4745135A1 (Gluetacs Therapeutics (Shanghai) Co., Ltd., priority 2023, dated 2025).

The target in one assay is T1, CK1α (Homo sapiens, UniProt P48729+Q96SW2).
T1 construct: effects of the compounds of the present disclosure on the expression of target proteins in cells; endogenous in cells; host or cells: human PBMCs (Milecell Biotechnologies)
The assay is described as follows: Western blot, degradation of substrate protein in hPBMCs. It counts as cell-based.

The next assay concerns the target T2, IKZF1 (Homo sapiens, UniProt Q13422+Q96SW2).
T2 construct: effects of the compounds of the present disclosure on the expression of target proteins in cells; endogenous in cells; host or cells: human PBMCs (Milecell Biotechnologies)
The assay is described as above. It counts as cell-based.

The target of a further assay is T3, IKZF2 (Homo sapiens, UniProt Q96SW2+Q9UKS7).
T3 construct: effects of the compounds of the present disclosure on the expression of target proteins in cells; endogenous in cells; host or cells: human PBMCs (Milecell Biotechnologies)
T3 sequence (Q9UKS7 whole entry): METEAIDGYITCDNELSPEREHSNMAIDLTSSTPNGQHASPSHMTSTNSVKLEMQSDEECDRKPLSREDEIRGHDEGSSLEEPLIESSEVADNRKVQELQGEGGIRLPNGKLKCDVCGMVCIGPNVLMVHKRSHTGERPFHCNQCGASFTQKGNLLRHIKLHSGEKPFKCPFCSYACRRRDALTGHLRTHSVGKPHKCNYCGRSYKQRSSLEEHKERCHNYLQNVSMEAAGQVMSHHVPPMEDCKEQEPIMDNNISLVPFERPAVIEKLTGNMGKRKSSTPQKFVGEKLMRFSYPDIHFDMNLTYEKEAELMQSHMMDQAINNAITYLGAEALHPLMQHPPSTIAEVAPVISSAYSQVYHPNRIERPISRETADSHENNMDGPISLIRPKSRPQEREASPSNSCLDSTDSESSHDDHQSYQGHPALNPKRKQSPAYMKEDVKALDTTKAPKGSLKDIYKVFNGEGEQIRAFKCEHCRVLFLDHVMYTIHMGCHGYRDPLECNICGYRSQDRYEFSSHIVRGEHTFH
T3 sequence (Q96SW2 whole entry): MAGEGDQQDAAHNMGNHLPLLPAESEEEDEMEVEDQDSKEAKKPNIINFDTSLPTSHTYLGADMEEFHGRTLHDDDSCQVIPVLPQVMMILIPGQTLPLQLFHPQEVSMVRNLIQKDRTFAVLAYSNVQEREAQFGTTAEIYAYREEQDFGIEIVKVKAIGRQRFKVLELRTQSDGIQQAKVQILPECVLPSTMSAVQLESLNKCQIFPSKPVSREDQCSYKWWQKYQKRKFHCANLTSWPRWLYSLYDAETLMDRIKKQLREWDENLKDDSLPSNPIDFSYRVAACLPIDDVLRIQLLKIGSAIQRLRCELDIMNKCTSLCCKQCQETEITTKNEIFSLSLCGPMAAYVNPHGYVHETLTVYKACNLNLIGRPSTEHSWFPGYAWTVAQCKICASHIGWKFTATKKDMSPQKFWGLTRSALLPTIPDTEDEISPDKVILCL
T3 sequence (Q16531 whole entry partner): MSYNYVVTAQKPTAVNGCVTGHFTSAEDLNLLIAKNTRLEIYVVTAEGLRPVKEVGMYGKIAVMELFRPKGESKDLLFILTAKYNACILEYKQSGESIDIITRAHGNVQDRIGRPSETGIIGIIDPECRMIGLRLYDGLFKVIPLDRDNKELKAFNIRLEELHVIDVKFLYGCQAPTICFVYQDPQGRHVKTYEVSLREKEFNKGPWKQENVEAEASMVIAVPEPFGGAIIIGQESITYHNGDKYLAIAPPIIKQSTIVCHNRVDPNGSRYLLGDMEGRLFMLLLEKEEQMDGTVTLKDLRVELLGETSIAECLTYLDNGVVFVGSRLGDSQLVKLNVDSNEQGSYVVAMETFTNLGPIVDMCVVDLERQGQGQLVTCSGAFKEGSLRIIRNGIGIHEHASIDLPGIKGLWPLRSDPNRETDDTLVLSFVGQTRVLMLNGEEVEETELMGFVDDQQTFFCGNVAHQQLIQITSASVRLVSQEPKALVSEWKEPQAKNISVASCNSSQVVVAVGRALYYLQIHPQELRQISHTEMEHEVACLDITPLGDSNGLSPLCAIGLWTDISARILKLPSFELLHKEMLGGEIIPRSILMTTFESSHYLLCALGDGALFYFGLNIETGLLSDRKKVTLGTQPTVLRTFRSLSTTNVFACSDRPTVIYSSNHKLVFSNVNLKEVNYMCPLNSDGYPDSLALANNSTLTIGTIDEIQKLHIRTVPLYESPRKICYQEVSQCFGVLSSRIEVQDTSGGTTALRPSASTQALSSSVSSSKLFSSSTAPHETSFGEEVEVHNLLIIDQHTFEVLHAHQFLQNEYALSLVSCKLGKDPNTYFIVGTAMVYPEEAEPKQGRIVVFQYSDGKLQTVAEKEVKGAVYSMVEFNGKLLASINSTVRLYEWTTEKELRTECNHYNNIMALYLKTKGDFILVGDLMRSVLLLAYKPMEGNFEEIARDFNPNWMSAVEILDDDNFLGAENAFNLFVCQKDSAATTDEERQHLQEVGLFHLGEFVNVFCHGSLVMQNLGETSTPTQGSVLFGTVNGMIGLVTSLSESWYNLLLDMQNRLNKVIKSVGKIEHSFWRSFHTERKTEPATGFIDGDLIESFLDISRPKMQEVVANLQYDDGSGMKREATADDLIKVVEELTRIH
Described as above. It counts as cell-based.

For another assay, the target named is T4, IKZF3 (Homo sapiens, UniProt Q96SW2+Q9UKT9).
T4 construct: effects of the compounds of the present disclosure on the expression of target proteins in cells; endogenous in cells; host or cells: human PBMCs (Milecell Biotechnologies)
T4 sequence (Q9UKT9 whole entry): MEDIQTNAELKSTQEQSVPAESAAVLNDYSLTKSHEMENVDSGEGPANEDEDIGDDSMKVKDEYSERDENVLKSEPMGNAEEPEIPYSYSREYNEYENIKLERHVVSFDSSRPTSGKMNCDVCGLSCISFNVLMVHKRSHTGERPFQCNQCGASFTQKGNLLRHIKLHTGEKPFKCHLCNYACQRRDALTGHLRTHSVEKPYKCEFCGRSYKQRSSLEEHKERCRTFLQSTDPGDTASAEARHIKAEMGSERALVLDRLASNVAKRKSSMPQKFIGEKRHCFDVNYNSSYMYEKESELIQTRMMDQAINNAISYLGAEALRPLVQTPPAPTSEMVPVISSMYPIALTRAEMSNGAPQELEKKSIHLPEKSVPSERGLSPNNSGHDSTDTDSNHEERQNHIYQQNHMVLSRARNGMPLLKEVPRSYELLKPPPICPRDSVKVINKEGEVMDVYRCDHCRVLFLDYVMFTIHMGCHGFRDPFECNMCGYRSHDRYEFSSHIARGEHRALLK
T4 sequence (Q96SW2 whole entry): as the sequence (Q96SW2 whole entry) above
T4 sequence (Q16531 whole entry partner): as the sequence (Q16531 whole entry partner) above
The assay is described as above. It counts as cell-based.

The next assay has as its target T5, WEE1 (Homo sapiens, UniProt P30291+Q96SW2).
T5 construct: effects of the compounds of the present disclosure on the expression of target proteins in cells; endogenous in cells; host or cells: human PBMCs (Milecell Biotechnologies)
The assay is described as above. It counts as cell-based.

Another assay has as its system GSPT1. The description is as above. It counts as cell-based, Human.
The target of assay [1] is T6, human Cereblon WT GST-tagged protein (Homo sapiens, UniProt Q96SW2).
T6 construct: purchased CISBIO 64BDCRBNPEH
T6 sequence (Q96SW2 whole entry): as the sequence (Q96SW2 whole entry) above
Nature of the assay: CRBN-binding affinity, HTRF (CEREBLON BINDING kit). Conditions: for inhibition at 0.5 µM: read-out: Inhibition Rate at 0.5 µM (%); for inhibition at 2 µM: read-out: Inhibition Rate at 2 µM (%).

The subject of assay [2] is Human T lymphocytic leukemia cell line: Jurkat. The assay is described as follows: Tumor cell proliferation inhibition (CellTiter-Meiluncell luminescent cell viability assay). Conditions: 96 h, read-out: Inhibitory activity (IC50, nM) on tumor cell proliferation, Jurkat.
Assay [3] deals with Human multiple myeloma cell (MM.1S). The description is as above. Conditions: Homo sapiens, MM1.S, 96 h; for inhibition at 0.01 µM: read-out: Inhibition Rate at 10 nM (%); for inhibition at 0.5 µM: read-out: Inhibition Rate at 500 nM (%).
Assay [4] deals with Human myeloid monocytic leukemia cell (MV-4-11). The assay is described as above. Conditions: MV4-11, 96 h; for inhibition at 0.01 µM: read-out: Inhibition Rate at 10 nM (%); for inhibition at 0.5 µM: read-out: Inhibition Rate at 500 nM (%).
Assay [5] concerns Human breast cancer cell (MCF-7). The assay is described as above. Conditions: MCF7, 96 h; for inhibition at 0.01 µM: read-out: Inhibition Rate at 10 nM (%); for inhibition at 0.5 µM: read-out: Inhibition Rate at 500 nM (%).
Experimental: (§1) The tumor cells used herein were cultured in a cell culture medium listed in table 2 at 37°C in an incubator with 5% CO2. Prior to experimentation, all cell lines used were correctly identified by STR profiling, and tested negative for mycoplasma contamination using a mycoplasma detection kit through routine screenings.
(§2) The IC50 values of the compounds of the present disclosure (including the compounds in Table 1 and Examples) were determined using the CellTiter-Meiluncell Luminescent Cell Viability Assay Kit from Dalian Meilun Biotech Co., Ltd. The detailed procedure is as follows: Tumor cells were seeded in 96-well cell culture plates at the densities specified in Table 3. On the following day, the test compounds of the present disclosure were subjected to serial dilution. The dilution can be performed according to one of the following two methods: • (1) The first dilution method: The test compounds of the present disclosure (including the compounds in Table 1 and Examples) were subjected to 5-fold serial dilutions starting from a highest concentration of 2000 µM, resulting in a total of 9 concentrations from high to low (2000, 400, 80, 16, 3.2, 0.64, 0.128, 0.0256, 0.00512 µM). Subsequently, 0.5 µL of the test compound dilution was transferred into the 96-well plate containing the cells, with each well containing 100 µL of cell culture medium. […] Into the 96-well plate, the diluted test compounds and corresponding detection reagents were added, resulting in final test compound concentrations of 500 nM and 10 nM, respectively. The experimental procedure is described below using the diluted 2 µM test compound as an example.
(§3) 0.5 µL of the aforementioned diluted compound of the present disclosure (including the compounds in Table 1 and Examples) was added to the seeded cells in 100 µL of medium, yielding a final test compound concentration of 10 nM. After the cells were treated with the compounds of the present disclosure for a specified period, the cell viability assay reagent was added to the culture medium according to the kit's instructions to determine cell viability. […] All controls were treated using the same procedure as the compounds of the present disclosure. The growth inhibition curves for the compounds of the present disclosure were plotted using Prism GraphPad software, and the IC50 values were calculated therefrom.
In assay [6] the test system is Human acute myeloid leukemia cell line: Kasumi-1. The description is as above. Conditions: Kasumi 1, 96 h; for inhibition at 0.01 µM: read-out: Inhibition Rate at 10 nM (%); for inhibition at 0.5 µM: read-out: Inhibition Rate at 500 nM (%).
Experimental: as §1, §2, §3
Assay [7] relates to Human multiple myeloma peripheral blood B lymphocyte cell (RPMI-8226). Described as above. Conditions: RPMI-8226, 96 h; for inhibition at 0.01 µM: read-out: Inhibition Rate at 10 nM (%); for inhibition at 0.5 µM: read-out: Inhibition Rate at 500 nM (%).
Experimental: as §1, §2, §3
For assay [8], the system named is Human acute T lymphocytic leukemia cell (Molt4). The description is as above. Conditions: MOLT-4, 96 h; for inhibition at 0.01 µM: read-out: Inhibition Rate at 10 nM (%); for inhibition at 0.5 µM: read-out: Inhibition Rate at 500 nM (%).
[9] abbreviates: Western blot, 24 hours of compound treatment, compounds tested at 50 nM and 500 nM (concentration for the table not stated).
Where [10] appears, read: 24 hours treatment, compounds at 50 nM and 500 nM (concentration behind the class not stated).

T5 sequence (P30291 whole entry): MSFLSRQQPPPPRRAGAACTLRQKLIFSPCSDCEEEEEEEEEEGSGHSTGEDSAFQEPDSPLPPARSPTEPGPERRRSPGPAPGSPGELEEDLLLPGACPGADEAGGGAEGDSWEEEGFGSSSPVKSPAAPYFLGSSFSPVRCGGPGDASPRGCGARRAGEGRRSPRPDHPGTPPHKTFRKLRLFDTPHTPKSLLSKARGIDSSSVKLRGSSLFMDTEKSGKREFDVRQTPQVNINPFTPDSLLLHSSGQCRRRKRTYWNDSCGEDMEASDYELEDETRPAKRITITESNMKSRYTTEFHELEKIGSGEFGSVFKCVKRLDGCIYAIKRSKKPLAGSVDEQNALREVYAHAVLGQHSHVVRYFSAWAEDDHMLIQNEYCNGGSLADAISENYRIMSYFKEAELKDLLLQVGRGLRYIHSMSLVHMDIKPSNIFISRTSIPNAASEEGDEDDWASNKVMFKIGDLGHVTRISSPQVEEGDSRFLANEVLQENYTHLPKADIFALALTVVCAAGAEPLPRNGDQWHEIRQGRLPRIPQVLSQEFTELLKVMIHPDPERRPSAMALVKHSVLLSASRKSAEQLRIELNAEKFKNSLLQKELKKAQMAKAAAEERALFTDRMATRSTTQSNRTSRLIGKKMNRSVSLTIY
T5 sequence (Q96SW2 whole entry): as the sequence (Q96SW2 whole entry) above
T5 sequence (Q16531 whole entry partner): as the sequence (Q16531 whole entry partner) above
T1 sequence (P48729 whole entry): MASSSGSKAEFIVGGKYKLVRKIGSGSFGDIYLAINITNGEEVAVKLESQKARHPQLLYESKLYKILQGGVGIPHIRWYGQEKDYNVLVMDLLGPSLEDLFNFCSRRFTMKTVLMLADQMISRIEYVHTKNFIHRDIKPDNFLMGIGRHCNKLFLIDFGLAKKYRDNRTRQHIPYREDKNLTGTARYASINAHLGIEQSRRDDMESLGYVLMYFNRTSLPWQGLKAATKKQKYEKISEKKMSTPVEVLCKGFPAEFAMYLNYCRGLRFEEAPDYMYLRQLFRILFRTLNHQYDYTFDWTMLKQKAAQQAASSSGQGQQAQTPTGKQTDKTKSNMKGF
T1 sequence (Q96SW2 whole entry): as the sequence (Q96SW2 whole entry) above
T1 sequence (Q16531 whole entry partner): as the sequence (Q16531 whole entry partner) above
T2 sequence (Q13422 whole entry): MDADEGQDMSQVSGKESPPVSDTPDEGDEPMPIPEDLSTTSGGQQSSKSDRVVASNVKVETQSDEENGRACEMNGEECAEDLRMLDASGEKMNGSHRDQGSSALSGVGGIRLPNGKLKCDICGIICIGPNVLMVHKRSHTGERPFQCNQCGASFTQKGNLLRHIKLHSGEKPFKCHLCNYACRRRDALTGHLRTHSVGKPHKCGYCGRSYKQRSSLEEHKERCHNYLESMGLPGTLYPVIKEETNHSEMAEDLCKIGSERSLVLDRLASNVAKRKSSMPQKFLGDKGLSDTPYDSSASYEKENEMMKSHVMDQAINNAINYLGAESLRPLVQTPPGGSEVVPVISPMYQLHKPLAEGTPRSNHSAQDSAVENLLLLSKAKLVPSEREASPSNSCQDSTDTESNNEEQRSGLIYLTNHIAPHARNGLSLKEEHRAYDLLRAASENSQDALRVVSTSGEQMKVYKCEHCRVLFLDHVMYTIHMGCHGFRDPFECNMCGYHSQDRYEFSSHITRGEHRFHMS
T2 sequence (Q96SW2 whole entry): as the sequence (Q96SW2 whole entry) above
T2 sequence (Q16531 whole entry partner): as the sequence (Q16531 whole entry partner) above

Regarding `O=C1CCC(N2Cc3cc(CN4CCN(c5cccc(Cl)c5Cl)CC4)ccc3C2=S)C(=O)N1` (centres unmarked) [GT-04474, 3-(5-((4-(2,3-dichlorophenyl)piperazin-1-yl)methyl)-1-thioxoisoindolin-2-yl)piperidine-2,6-dione], the “CK1α substrate protein remaining %” value on CK1α (setting [9]) is given as “B (80%< substrate protein remaining %≤ 100%)”. The “IKZF 1 substrate protein remaining %” value on IKZF1 (setting [9]) is reported as “A (0% ≤ substrate protein remaining % ≤ 80%)”. Also, the “IKZF2 substrate protein remaining %” value at IKZF2 (setting [9]) is on record as “A (0% ≤ substrate protein remaining % ≤ 80%)”. Besides, the “IKZF3 substrate protein remaining %” value at IKZF3 (setting [9]) is listed as “A (0% ≤ substrate protein remaining % ≤ 80%)”. For the same compound, at WEE1 (setting [9]), the “Wee1 substrate protein remaining %” value is recorded as “A (0% ≤ substrate protein remaining % ≤ 80%)”. In the assay with GSPT1 (setting [9]), the “GSPT1 substrate protein remaining %” value is listed as “A (0% ≤ substrate protein remaining % ≤ 80%)”. The IC50 in [1] (CRBN binding, HTRF, 3 hours at room temperature, read-out: HTRF IC50) was in the range of 500 to 1000 nM; in [2], 50 to 100 nM.

Regarding `O=C1CCC(N2Cc3c(CN4CCN(c5ccc(Cl)cc5)CC4)cccc3C2=S)C(=O)N1` (centres unmarked) [GT-08266, 3-(4-((4-(4-chlorophenyl)piperazin-1-yl)methyl)-1-thioxoisoindolin-2-yl)piperidine-2,6-dione], on CK1α (setting [9]), the “CK1α substrate protein remaining %” value is given as “B (80%< substrate protein remaining %≤ 100%)”. Further, the “IKZF 1 substrate protein remaining %” value at IKZF1 (setting [9]) is “B (80%< substrate protein remaining %≤ 100%)”. Also, at IKZF2 (setting [9]), the “IKZF2 substrate protein remaining %” value is reported as “B (80%< substrate protein remaining %≤ 100%)”. In addition, on IKZF3 (setting [9]), the “IKZF3 substrate protein remaining %” value is “B (80%< substrate protein remaining %≤ 100%)”. Moreover, on WEE1 (setting [9]), the “Wee1 substrate protein remaining %” value is “A (0% ≤ substrate protein remaining % ≤ 80%)”. The “GSPT1 substrate protein remaining %” value in the assay on GSPT1 (setting [9]) was “A (0% ≤ substrate protein remaining % ≤ 80%)”. Also, the inhibition at 0.5 µM fell in the range of 30 to 40% in assay [1]; 50 to 60% in assay [3]; 80 to 100% in assay [4]; 40 to 50% in assay [5]; 50 to 60% in assay [6]. Further, in [1], the inhibition at 2 µM lay within 60 to 80%. Also, the inhibition at 0.01 µM in assay [3] lay in the range of 40 to 50%; in assay [4] it was 60 to 80%; in assay [5] it was 40 to 50%; in assay [6], 50 to 60%.

Consider `O=C1CCC(N2Cc3c(CN4CCN(c5cccc(F)c5F)CC4)cccc3C2=S)C(=O)N1` (centres unmarked) [GT-08268, 3-(4-((4-(2,3-difluorophenyl)piperazin-1-yl)methyl)-1-thioxoisoindolin-2-yl)piperidine-2,6-dione], for which the “CK1α substrate protein remaining %” value at CK1α (setting [9]) is “B (80%< substrate protein remaining %≤ 100%)”. In addition, on IKZF1 (setting [9]), the “IKZF 1 substrate protein remaining %” value is “B (80%< substrate protein remaining %≤ 100%)”. Moreover, the “IKZF2 substrate protein remaining %” value at IKZF2 (setting [9]) is reported as “B (80%< substrate protein remaining %≤ 100%)”. Further, on IKZF3 (setting [9]), the “IKZF3 substrate protein remaining %” value was “B (80%< substrate protein remaining %≤ 100%)”. Moreover, the “Wee1 substrate protein remaining %” value at WEE1 (setting [9]) is “A (0% ≤ substrate protein remaining % ≤ 80%)”. In the assay with GSPT1 (setting [9]), the “GSPT1 substrate protein remaining %” value is reported as “A (0% ≤ substrate protein remaining % ≤ 80%)”. Besides, in assay [1], the inhibition at 0.5 µM lay in the range of 40 to 53% and the inhibition at 2 µM is 60 to 80%. Also, in [4], the inhibition at 0.01 µM was 60 to 80% and the inhibition at 0.5 µM fell in the range of 60 to 80%. In [6], the inhibition at 0.01 µM lay within 50 to 60% and the inhibition at 0.5 µM is 50 to 60%.

Regarding `O=C1CCC(N2Cc3cc(CN4CC=C(c5ncccc5F)CC4)ccc3C2=S)C(=O)N1` (centres unmarked) [GT-08491, 3-(5-((3-fluoro-3',6'-dihydro-[2,4'-bipyridin]-1'(2'H)-yl)methyl)-1-thioxoisoindolin-2-yl)piperidine-2,6-dione], on CK1α (setting [9]), the “CK1α substrate protein remaining %” value is “B (80%< substrate protein remaining %≤ 100%)”. Further, the “IKZF 1 substrate protein remaining %” value at IKZF1 (setting [9]) is “B (80%< substrate protein remaining %≤ 100%)”. Also, the “IKZF2 substrate protein remaining %” value at IKZF2 (setting [9]) is listed as “B (80%< substrate protein remaining %≤ 100%)”. Besides, the “IKZF3 substrate protein remaining %” value on IKZF3 (setting [9]) is on record as “B (80%< substrate protein remaining %≤ 100%)”. Further, on WEE1 (setting [9]), the “Wee1 substrate protein remaining %” value is “A (0% ≤ substrate protein remaining % ≤ 80%)”. Besides, the “GSPT1 substrate protein remaining %” value in the assay with GSPT1 (setting [9]) is “A (0% ≤ substrate protein remaining % ≤ 80%)”. Moreover, the inhibition at 0.5 µM in assay [1] was 80 to 100%; in [3] it was 80 to 100%; in [7], 70 to 80%; in [8] it was 80 to 100%; in assay [4] it was 80 to 100%; in assay [5] it was 40 to 50%. Also, in assay [1], the inhibition at 2 µM was in the range of 80 to 100%. Also, the inhibition at 0.01 µM in [3] lay in the range of 10 to 20%; in assay [7], 10 to 20%; in assay [8], 20 to 30%; in [4], 18 to 25%.

For `O=C1CCC(N2Cc3cc(CN4CC=C(c5n[nH]c6cc(F)ccc56)CC4)ccc3C2=S)C(=O)N1` (centres unmarked) [GT-09270, 3-(5-((4-(6-fluoro-1H-indazol-3-yl)-3,6-dihydropyridin-1(2H)-yl)methyl)-1-thioxoisoindolin-2-yl)piperidine-2,6-dione], the “CK1α substrate protein remaining %” value on CK1α (setting [10]) is recorded as “A (0% ≤ substrate protein remaining % ≤ 80%)”. Besides, the “IKZF 1 substrate protein remaining %” value at IKZF1 (setting [10]) is given as “A (0% ≤ substrate protein remaining % ≤ 80%)”. The “IKZF2 substrate protein remaining %” value on IKZF2 (setting [10]) was “B (80%< substrate protein remaining %≤ 100%)”. For the same compound, the “IKZF3 substrate protein remaining %” value on IKZF3 (setting [10]) is reported as “B (80%< substrate protein remaining %≤ 100%)”. Moreover, on WEE1 (setting [10]), the “Wee1 substrate protein remaining %” value is on record as “A (0% ≤ substrate protein remaining % ≤ 80%)”. The “GSPT1 substrate protein remaining %” value with GSPT1 (setting [10]) is given as “B (80%< substrate protein remaining %≤ 100%)”. For the same compound, the inhibition at 0.5 µM in assay [1] lay within 60 to 80%; in [3], 80 to 100%; in assay [7] it was 70 to 80%; in [8], 80 to 100%; in assay [4], 80 to 100%; in assay [5] it was 70 to 80%. Besides, in assay [1], the inhibition at 2 µM lay within 80 to 100%. Also, the inhibition at 0.01 µM in assay [3] lay in the range of 50 to 60%; in assay [7], 20 to 30%; in assay [8] it was 70 to 80%; in [4], 80 to 100%; in assay [5], 10 to 20%.

On to `O=C1CCC(N2Cc3cc(CN4CC=C(c5cccc6c(F)cccc56)CC4)ccc3C2=S)C(=O)N1` (centres unmarked) [GT-09276, 3-(5-((4-(5-fluoronaphthalen-1-yl)-3,6-dihydropyridin-1(2H)-yl)methyl)-1-thioxoisoindolin-2-yl)piperidine-2,6-dione], for which the “CK1α substrate protein remaining %” value on CK1α (setting [10]) is “A (0% ≤ substrate protein remaining % ≤ 80%)”. The “IKZF 1 substrate protein remaining %” value on IKZF1 (setting [10]) is on record as “B (80%< substrate protein remaining %≤ 100%)”. Also, the “IKZF2 substrate protein remaining %” value on IKZF2 (setting [10]) is on record as “A (0% ≤ substrate protein remaining % ≤ 80%)”. Also, the “IKZF3 substrate protein remaining %” value on IKZF3 (setting [10]) is “A (0% ≤ substrate protein remaining % ≤ 80%)”. Moreover, the “Wee1 substrate protein remaining %” value at WEE1 (setting [10]) was “A (0% ≤ substrate protein remaining % ≤ 80%)”. In addition, in the assay on GSPT1 (setting [10]), the “GSPT1 substrate protein remaining %” value is “A (0% ≤ substrate protein remaining % ≤ 80%)”. For the same compound, the inhibition at 0.5 µM in [1] fell in the range of 40 to 53%; in assay [3], 80 to 100%; in [7], 70 to 80%; in [8], 70 to 80%; in [4] it was 80 to 100%; in [5], 80 to 100%. Moreover, in assay [1], the inhibition at 2 µM was in the range of 80 to 100%. Also, the inhibition at 0.01 µM in [3] fell in the range of 70 to 80%; in assay [7], 20 to 30%; in assay [8], 70 to 80%; in assay [4], 80 to 100%; in assay [5], 30 to 40%.
